Counter-ions that a name gives are not always drawn.
Each compound was assayed against T1, human DPP-4 (Homo sapiens, UniProt P27487) (assay: DPP-4 inhibition assay (cleavage of pseudosubstrate Gly-Pro-pNA, absorbance at 405 nm)). Settings: recombinant human DPP-4, steady state, Gly-Pro-pNA 120 or 1000 μM, pH 7.4, 40 min preincubation; IC50 converted to Ki assuming competitive inhibition; read-out: DPP4 Ki.
T1 construct: during isolation the entire transmembrane domain (including His tag) is removed by proteases present in the CHO cells; His tag (enterokinase-cleavable, from pcDNA4/HisMax) (N, cleaved yes); made in house
T1 sequence (P27487 29-766 limits assumed): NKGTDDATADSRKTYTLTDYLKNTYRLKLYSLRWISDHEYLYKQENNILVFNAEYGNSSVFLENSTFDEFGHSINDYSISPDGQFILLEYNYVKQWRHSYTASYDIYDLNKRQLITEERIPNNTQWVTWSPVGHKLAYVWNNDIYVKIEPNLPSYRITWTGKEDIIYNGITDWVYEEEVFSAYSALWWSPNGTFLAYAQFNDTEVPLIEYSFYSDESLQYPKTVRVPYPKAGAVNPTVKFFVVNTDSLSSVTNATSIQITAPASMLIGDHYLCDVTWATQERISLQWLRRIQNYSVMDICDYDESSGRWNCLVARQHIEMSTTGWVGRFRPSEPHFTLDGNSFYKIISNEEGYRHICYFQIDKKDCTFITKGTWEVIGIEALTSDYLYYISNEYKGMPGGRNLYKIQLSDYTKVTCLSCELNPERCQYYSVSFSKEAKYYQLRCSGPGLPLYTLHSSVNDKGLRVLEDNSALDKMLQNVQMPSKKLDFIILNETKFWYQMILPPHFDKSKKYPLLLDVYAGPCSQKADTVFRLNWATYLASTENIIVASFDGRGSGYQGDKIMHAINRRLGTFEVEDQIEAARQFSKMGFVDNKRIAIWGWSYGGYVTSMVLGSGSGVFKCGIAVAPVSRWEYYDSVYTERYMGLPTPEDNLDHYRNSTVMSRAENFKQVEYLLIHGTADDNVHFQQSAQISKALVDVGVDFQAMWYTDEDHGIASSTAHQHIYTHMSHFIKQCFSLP
Format: biochemical
Procedure: DPP-4 inhibitory activity of the compounds of the present invention may be determined by use of an in vitro assay system which measures the degree in inhibition of DPP-4-mediated cleavage of an appropriate substrate or pseudo-substrate. Inhibition constants (Ki values) for the DPP-4 inhibitors of the invention may be determined by the method described in the experimental section below.
To generate human DPP-4, PCR (Red-tag polymerase, Sigma) was performed on Human cDNA from placenta (Clontech) using two primers, […] (SEQ ID NO:1) and […] (SEQ ID NO:2), based on the nucleotide sequence of the human clone (accession number M74777). PCR products were cloned into the pcDN4/HisMax TOPO vector (Invitrogene). For stable transfection of CHO-DG44 cells, DPP4 was rePCRed using primers […] (SEQ ID NO:3) and […] (SEQ ID NO:4) to generate KpnI and XhoI sites. The KpnI and XhoI sites were used to extract the N-terminal His tagged gene. The His tag, which could be cleaved and removed by Enterokinase, was included to allow purification using the TALON affinity column. The gene was then ligated into the KpnI and XhoI sites of the pD16 vector for stable transfection. Stable cell lines were generated by transfecting the expression vector into Chinese hamster ovary (CHO-DG44) cells using electroporation. The CHO-DG44 cell line was grown in PFCHO media supplemented with HT (glycine, hypoxanthine and thymidine, Invitrogene), glutamine and Recombulin (ICN). Then 1×10^7 cells/ml were collected, transfected with 60 μg of DNA using electroporation at 300V, and then transferred to a T75 flask. On the third day following transfection, the HT supplement was removed and selection was initiated with methotrexate (MTX, 10 nM, ICN). After a further 10 days the cells were plated into individual wells of 96 well plates. Every 10 days the concentration of MTX was increased two to three fold, up to a maximum of 400 nM. Final stable cell line selection was based on yield and activity of the expressed protein.
An attempt to purify recombinant DPP-4 using Talon resin was not efficient, resulting in small yields, with most of the DPP activity passing through the column. Therefore, protein was further purified using conventional anion exchange (Sepharose Q), gel filtration (S-200) and high resolution MonoQ columns. The final protein yielded a single band on SDS-PAGE gels. Amino acid sequence analysis indicated two populations of DPP-4 in the sample. One portion of the protein had 27 amino acids truncated from the N-terminus, while the other was lacking the N-terminal 37 amino acids. […] Total protein concentration was measured using the Bradford dye method and the amount of the active DPP-4 was determined by titrating the enzyme with a previously characterized inhibitor (Ki=0.4 nM).
Inhibition of human DPP-4 activity was measured under steady-state conditions by following the absorbance increase at 405 nm upon the cleavage of the pseudosubstrate, Gly-Pro-pNA. Assays were performed in 96-well plates using a Thermomax plate reader. […] To ensure steady-state conditions for slow-binding inhibitors, enzyme was preincubated with the compound for 40 minutes prior to substrate addition, to initiate the reaction.
Inhibitor potency was evaluated by fitting inhibition data to the binding isotherm:
[formula] where vi is the initial reaction velocity at different concentrations of inhibitor I; v is the control velocity in the absence of inhibitor, range is the difference between the uninhibited velocity and background; background is the rate of spontaneous substrate hydrolysis in the absent of enzyme, n is the Hill coefficient.
Calculated IC50s at each substrate concentration were converted to Ki assuming competitive inhibition according to:
All inhibitors were competitive as judged by a very good agreement of Ki values obtained from the assays at high and low substrate concentrations. […]

Ki [nM] | Structure (SMILES)
3.5 | Cc1nc2c(c(-c3ccc(Cl)cc3Cl)c1CN)C(=O)N(CC(=O)N1CCCC1)CC2 [Example 9, (S)-3-(Aminomethyl)-4-(2,4-dichlorophenyl)-2-methyl-6-(2-oxo-2-(pyrrolidin-1-yl)ethyl)-7,8-dihydro-1,6-naphthyridin-5(6H)-one TFA salt]
4.43 | Cc1nc2c(c(-c3ccc(Cl)cc3Cl)c1CN)C(=O)N(CC(=O)N1CCOCC1)CC2 [Example 12, (S)-3-(Aminomethyl)-4-(2,4-dichlorophenyl)-2-methyl-6-(2-morpholino-2-oxoethyl)-7,8-dihydro-1,6-naphthyridin-5(6H)-one TFA salt]
37.8 | Cc1nc2c(c(-c3ccccc3Cl)c1CN)C(=O)N(CC(=O)N(C)C)CC2 (single isomer, unassigned) [Example 3, TFA salt]
5 | Cc1nc2c(c(-c3ccc(Cl)cc3Cl)c1CN)C(=O)N(c1ccccc1)CC2 [Example 17, 3-(Aminomethyl)-4-(2,4-dichlorophenyl)-2-methyl-6-phenyl-7,8-dihydro-1,6-naphthyridin-5(6H)-one TFA salt]
9.35 | Cc1nc2c(c(-c3ccc(Cl)cc3Cl)c1CN)C(=O)NC(=O)C2 [Example 19, 3-(Aminomethyl)-4-(2,4-dichlorophenyl)-2-methyl-1,6-naphthyridine-5,7(6H,8H)-dione TFA Salt]
7.72 | Cc1nc2c(c(-c3ccc(Cl)cc3Cl)c1CN)C(=O)N(C)CC2 [Example 13, 3-(Aminomethyl)-4-(2,4-dichlorophenyl)-2,6-dimethyl-7,8-dihydro-1,6-naphthyridin-5(6H)-one TFA salt]
5.91 | Cc1nc2c(c(-c3ccc(Cl)cc3Cl)c1CN)C(=O)N(C[C@@H]1CCCO1)CC2 [Example 14, 3-(Aminomethyl)-4-(2,4-dichlorophenyl)-2-methyl-6-(((S)-tetrahydrofuran-2-yl)methyl)-7,8-dihydro-1,6-naphthyridin-5(6H)-one TFA salt]
3.87 | Cc1nc2c(c(-c3ccc(Cl)cc3Cl)c1CN)C(=O)N(CC(=O)N1CCCCC1)CC2 [Example 10, (S)-3-(Aminomethyl)-4-(2,4-dichlorophenyl)-2-methyl-6-(2-oxo-2-(piperidin-1-yl)ethyl)-7,8-dihydro-1,6-naphthyridin-5(6H)-one TFA salt]
2.28 | COc1ccccc1N1CCc2nc(C)c(CN)c(-c3ccc(Cl)cc3Cl)c2C1=O [Example 18, 3-(Aminomethyl)-4-(2,4-dichlorophenyl)-6-(2-methoxyphenyl)-2-methyl-7,8-dihydro-1,6-naphthyridin-5(6H)-one TFA Salt]
39.7 | Cc1nc2c(c(-c3ccc(Cl)cc3Cl)c1CN)C(=O)N(CC(=O)N(C)C)CC2 (single isomer, unassigned) [Example 4, TFA salt]
3.82 | CCN(CC)C(=O)CN1CCc2nc(C)c(CN)c(-c3ccc(Cl)cc3Cl)c2C1=O [Example 8, (S)-2-(3-(Aminomethyl)-4-(2,4-dichlorophenyl)-2-methyl-5-oxo-7,8-dihydro-1,6-naphthyridin-6(5H)-yl)-N,N-diethylacetamide TFA salt]
6.9 | Cc1nc2c(c(-c3ccc(Cl)cc3Cl)c1CN)C(=O)NCC2 [Example 1, 3-(Aminomethyl)-4-(2,4-dichlorophenyl)-2-methyl-7,8-dihydro-1,6-naphthyridin-5(6H)-one HCl salt]
18 | Cc1nc2c(c(-c3ccc(Cl)cc3Cl)c1CN)C(=O)N(CCO)CC2 [Example 16, 3-(Aminomethyl)-4-(2,4-dichlorophenyl)-6-(2-hydroxyethyl)-2-methyl-7,8-dihydro-1,6-naphthyridin-5(6H)-one TFA salt]
> 100 | Cc1nc2c(c(-c3ccccc3Cl)c1CN)C(=O)N(CC(=O)N(C)C)CC2 (single isomer, unassigned) [Example 5, TFA Salt]
2.01 | Cc1nc2c(c(-c3ccc(Cl)cc3Cl)c1CN)C(=O)N(CC(=O)N(C)C)CC2 (single isomer, unassigned) [Example 2, TFA salt]
3.44 | Cc1nc2c(c(-c3ccc(Cl)cc3Cl)c1CN)C(=O)N(CC(N)=O)CC2 [Example 6, (S)-2-(3-(Aminomethyl)-4-(2,4-dichlorophenyl)-2-methyl-5-oxo-7,8-dihydro-1,6-naphthyridin-6(5H)-yl)acetamide TFA salt]
5.39 | COCCN1CCc2nc(C)c(CN)c(-c3ccc(Cl)cc3Cl)c2C1=O [Example 15, 3-(Aminomethyl)-4-(2,4-dichlorophenyl)-6-(2-methoxyethyl)-2-methyl-7,8-dihydro-1,6-naphthyridin-5(6H)-one TFA salt]
49.2 | Cc1nc2c(c(-c3ccc(Cl)cc3Cl)c1CN)C(=O)N(CC(=O)N1CCC(N3CCCCC3=O)CC1)CC2 [Example 11, (S)-3-(Aminomethyl)-4-(2,4-dichlorophenyl)-2-methyl-6-(2-oxo-2-(2-oxo-1,4′-bipiperidin-1′-yl)ethyl)-7,8-dihydro-1,6-naphthyridin-5(6H)-one TFA salt]

Reference: patent publication US7723355B2, “7,8-dihydro-1,6-naphthyridin-5(6H)-ones and related bicyclic compounds as inhibitors of dipeptidyl peptidase IV and methods” (Bristol-Myers Squibb Company, priority 2006, dated 2010)
